# Entries after “also recorded” stand apart in the source; their conditions may differ. Where a name gives a salt, the structure may show the parent alone. Read-outs that look alike come from different tables or passages of the source.
# Experiments:
# [1] = system: cisplatin-induced tactile allodynia; experiment: Cisplatin-induced tactile allodynia model, electronic von Frey (Examples 23, 24); assay type: in vivo, C57BL/6 mice; conditions: mice
# [2] = assay type: physicochemical; conditions: for Concentration of CBD / Concentration of Δ^9-THC: CBD incubated, 37° C.; for Stability under acidic (gastric juice) conditions, in words: pH 1.2, 37° C.; for Stability under physiologic / intestinal juice conditions, in words: pH 7.4, 37° C.
# Protocol: The stability CBD and CBD analogs (CBD-Mono-VHS and CBD-Di-VHS) was evaluated under acidic and alkaline conditions to simulate exposure to gastric and intestinal fluids. The procedure is outlined as follows: • 1. Stock solution of 5 mg/mL CBD, CBD-Mono-Val-Mono HS, CBD-Di-Val-Di HS was prepared. • 2. Simulated Gastric Fluid (pH 1.2)+1% (SDS) was prepared and kept in 37° C. water bath. • 3. Physiological buffer (pH 7.4)+1% SDS was prepared and kept in 37° C. water bath. • 4. 100 μL of CBD, CBD-Mono-Val-Mono HS or CBD-Di-Val-Di-HS stock in acetonitrile (equivalent to 500 μg) was spiked into separate vials containing 5 ml of either pH 1.2 and 7.4. • 5. At each time point, 100 μL of the solution was withdrawn. • 6. 900 μL acetonitrile was added to each sample. • 7. All samples centrifuged at 4° C. and 13,000 rpm. • 8. 100 μL of the supernatant was withdrawn; to this 100 μL of supernatant, 900 μL of acetonitrile was added and placed in LC vials for analysis. Tables 9, 10 and 11, and FIGS. 7a, 7b, 18, and 19 show the results.
# [3] = In vivo eye tissue levels 90 min after topical application in Tocrisolve emulsion (Examples 12-14); set-up: species or system New Zealand albino rabbits; conditions: for concentration at 90 min: male, New Zealand albino, 90 min post topical 50 μL Tocrisolve emulsion; for Penetration into the ocular tissues, in words (Example 14): topical Tocrisolve emulsion
# Protocol: Conscious male New Zealand albino rabbits were used. The formulations were applied topically into the rabbits eyes (50 μL containing the equivalent of 250 μg CBD) in Tocrisolve® emulsion formulations as described in Example 11. The animals were sacrificed 90 min. after drug application and the eye tissues harvested for analysis.
# The same procedure was followed as shown under Example 12. Additional CBD analogs were tested in this example. In this example the tissue levels of both free CBD and intact analog were determined.
# Formulations: Fifty microlitres of 0.5% w/v CBD in Tocrisolve emulsion (Dose: 0.25 mg)
# Animal model: Conscious male new Zealand albino rabbits, Duration of the study: 90 min.
# Aqueous humor, Vitreous humor, Retina-Choroid and Iris-Ciliary bodies analysed for parent compound as well as CBD.
# Formulations: Fifty microlitres of 0.5% w/v Tocrisolve emulsion formulations (Dose: 0.25 mg)
# Animal model: Conscious male new Zealand albino rabbits, Duration of the study: 90 min
# [4] = Solubility of CBD and its analogs in Tocrisolve emulsion; assay type: physicochemical; conditions: for Maximum solubility achieved in Tocrisolve: as the substance itself
# Protocol: Formulations: 0.5% w/v CBD equivalent in Tocrisolve emulsion.
# Tocrisolve composition: […] emulsion composed of a 1:4 ratio of soya oil/water that is emulsified with the block co-polymer Pluronic F68. Manufacturing process for the Tocrisolve emulsion: • Add accurately weighed amount of drug a glass vial. • Add required volume of Torcisolve blank emulsion to each vial • Vortex each vial for 5 minutes. • Sonicate each vial for 10 minutes. • Centrifuge each vial for 5 minutes at 9000 rpm at 25° C. • Collect the supernatant and analyze for CBD, CBD-Val Mono and CBD-Val-HS mono as applicable.
# [5] = system: morphine place preference; experiment: Morphine conditioned place preference, model of addiction (Example 25); conditions: mice
# [6] = Bioavailability of CBD from suppository formulations containing CBD-Val-HS (Example 15); assay type: in vivo; conditions: cannulated rats, rectal suppository; PEG 1000 (7 mg) vs Wecobe W (6.125 or 4.625 mg)
# Protocol: CBD-Val-HS was formulated in both lipophilic (Wecobe W base) and hydrophilic (PEG 1000 base) suppository formulations. The formulations were administered to cannulated rats (100 mg suppository per rat) and blood samples were collected, centrifuged and the plasma separated for LC/MS/MS analysis. The amount of CBD in the plasma samples was quantified. The amount of CBD-Val-HS in the plasma samples was not quantified.
# [7] = rabbit eye, 90 min post topical, 250 μg CBD equivalent
compound,measurement,setting,value
"C=C(C)[C@@H]1CCC(C)=C[C@H]1c1c(O)cc(CCCCC)cc1O [CBD, Cannabidiol]","Effect on cisplatin-induced tactile allodynia (eVF paw withdrawal), in words","[1]; Example 23, 1.0 mg/kg CBD in combination with 0.1 mg/kg morphine, IP",did not further alter the anti-allodynic properties
same,"Effect on cisplatin-induced tactile allodynia (eVF paw withdrawal), in words","[1]; Example 23, 1.0 mg/kg IP alone, 45 minutes prior to testing",modest attenuation of CIN
same,"Effect on cisplatin-induced tactile allodynia (eVF paw withdrawal), in words","[1]; Example 23, 2.0 mg/kg CBD in combination with 0.1 mg/kg morphine, IP",attenuated tactile allodynia comparable to 2.5 mg/kg morphine
same,"Effect on cisplatin-induced tactile allodynia (eVF paw withdrawal), in words","[1]; Example 23, 2.0 mg/kg CBD in combination with 2.5 mg/kg morphine, IP",not further enhanced
same,"Effect on cisplatin-induced tactile allodynia (eVF paw withdrawal), in words","[1]; Example 23, 2.0 mg/kg IP alone, 45 minutes prior to testing",ineffective
same,Concentration of CBD,"[2]; Acid (pH 1.2), Time Point 0",656 ng/mL
same,Concentration of Δ^9-THC,"[2]; Acid (pH 1.2), Time Point 0",38 ng/mL
same,Concentration of CBD,"[2]; Acid (pH 1.2), Time Point 15",553 ng/mL
same,Concentration of Δ^9-THC,"[2]; Acid (pH 1.2), Time Point 15",238 ng/mL
same,Concentration of CBD,"[2]; Acid (pH 1.2), Time Point 30",204 ng/mL
same,Concentration of Δ^9-THC,"[2]; Acid (pH 1.2), Time Point 30",243 ng/mL
same,Concentration of CBD,"[2]; Acid (pH 1.2), Time Point 60",111 ng/mL
same,Concentration of Δ^9-THC,"[2]; Acid (pH 1.2), Time Point 60",496 ng/mL
same,Concentration of CBD,"[2]; Acid (pH 1.2), Time Point 90",91 ng/mL
same,Concentration of Δ^9-THC,"[2]; Acid (pH 1.2), Time Point 90",625 ng/mL
same,Concentration of CBD,"[2]; Acid (pH 1.2), Time Point 120",46 ng/mL
same,Concentration of Δ^9-THC,"[2]; Acid (pH 1.2), Time Point 120",454 ng/mL
same,Concentration of CBD,"[2]; Base (pH 7.4), Time Point 0",760 ng/mL
same,Concentration of CBD,"[2]; Base (pH 7.4), Time Point 15",943 ng/mL
same,Concentration of CBD,"[2]; Base (pH 7.4), Time Point 30",1015 ng/mL
same,Concentration of CBD,"[2]; Base (pH 7.4), Time Point 60",1119 ng/mL
same,Concentration of CBD,"[2]; Base (pH 7.4), Time Point 90",1081 ng/mL
same,Concentration of CBD,"[2]; Base (pH 7.4), Time Point 120",975 ng/mL
same,"Conversion to Δ^9-THC under acidic conditions, in words",[2]; acidic conditions,converts to Δ^9-THC
same,"Stability under acidic (gastric juice) conditions, in words",[2],partially converted to THC
same,"Stability under physiologic / intestinal juice conditions, in words",[2],stable
same,concentration at 90 min,"[3]; retina-choroid, Table 2, rabbit eye, 250 μg CBD equivalent, read-out: Concentration of CBD in Retina Choroid",17.3 ± 6.5 ng/g
same,"Ocular tissue levels of the applied substance, in words (Example 13)","[3]; rabbit eye, 90 min post topical, 0.25 mg CBD",no levels in the tissues at all
same,"Ocular tissue levels, in words (Example 12)",[3]; [7],very low levels in the retina choroid
same,Maximum solubility achieved in Tocrisolve,[4],1.19 % w/v
same,"Effect on morphine place preference, in words","[5]; morphine groups, IP, CBD 2.5-20.0 mg/kg, CBD-val-HS 10.0 mg/kg",dose-dependently decreased preference scores that approached significance at 10 mg/kg CBD; also recorded: showed a tendency to block the addictive effects of morphine
same,"Place preference or aversion of the substance itself, in words","[5]; saline groups, IP, CBD 2.5-20.0 mg/kg, CBD-val-HS 10.0 mg/kg",did not show neither place preference nor aversion
"C=C(C)C1CCC(C)=CC1c1c(OC(=O)CCC(=O)O)cc(CCCCC)cc1OC(=O)CCC(=O)O (stereo not shown) [CBD-HS, CBD-Di-Hemisuccinate]","Penetration into the ocular tissues, in words (Example 14)",[3]; rabbit eye,not adequate
same,Maximum solubility achieved in Tocrisolve,[4],1.12 % w/v
same,Maximum solubility achieved in Tocrisolve (In terms of CBD),[4],(0.7) % w/v
C=C(C)C1CCC(C)=CC1c1c(OC(=O)[C@@H](NC(=O)CCC(=O)O)C(C)C)cc(CCCCC)cc1OC(=O)[C@@H](NC(=O)CCC(=O)O)C(C)C (stereo partly shown) [CBD-VAL-HS],concentration at 90 min,"[3]; retina-choroid, Table 4, Set 2, rabbit, dose 250 μg, read-out: Analog Concentration, Retina Choroid",142 ± 76 ng/g
C=C(C)C1CCC(C)=CC1c1c(OC(=O)[C@@H](N)C(C)C)cc(CCCCC)cc1OC(=O)[C@@H](N)C(C)C (stereo partly shown) [CBD-Val-HCl],concentration at 90 min,"[3]; retina-choroid, Table 2, rabbit eye, 250 μg CBD equivalent, read-out: Concentration of CBD-Val in Retina Choroid",9.1 ± 1.5 ng/g
same,"Ocular tissue levels, in words (Example 12)",[3]; [7],very low levels in the retina choroid
same,Maximum solubility achieved in Tocrisolve,[4],2.04 % w/v
same,Maximum solubility achieved in Tocrisolve (In terms of CBD),[4],(1.09) % w/v
"C=C(C)C1CCC(C)=CC1c1c(OC(=O)[C@@H](NC(=O)CCC(=O)O)C(C)C)cc(CCCCC)cc1OC(=O)[C@@H](NC(=O)CCC(=O)O)C(C)C (stereo partly shown) [CBD-Val-HS, CBD-Di-Valinate-Di-Hemisuccinate]","Stability under acidic (gastric juice) conditions, in words",[2],stable
same,"Stability under physiologic / intestinal juice conditions, in words",[2],stable
same,"Penetration into the ocular tissues, in words (Example 14)",[3]; rabbit eye,not adequate
same,"Plasma levels of CBD, hydrophilic base compared with lipophilic base, in words",[6],Higher levels of CBD
C=C(C)C1CCC(C)=CC1c1c(OC(=O)[C@@H](NC(=O)CCC(=O)O)C(C)C)cc(CCCCC)cc1OC(=O)[C@@H](NC(=O)CCC(=O)O)C(C)C (stereo partly shown) [CBD-Val-HS],concentration at 90 min,"[3]; aqueous humor, Table 2, rabbit eye, 250 μg CBD equivalent, read-out: Concentration of CBD-Val-HS in Aqueous Humor",24.6 ± 16.2 ng/g
same,concentration at 90 min,"[3]; retina-choroid, Table 2, rabbit eye, 250 μg CBD equivalent, read-out: Concentration of CBD-Val-HS in Retina Choroid",417 ± 114 ng/g
same,concentration at 90 min,"[3]; vitreous humor, Table 2, rabbit eye, 250 μg CBD equivalent, read-out: Concentration of CBD-Val-HS in Vitreous Humor",612 ± 264 ng/g
"C=C(C)C1CCC(C)=CC1c1c(OC(=O)[C@@H](N)C(C)C)cc(CCCCC)cc1OC(=O)[C@@H](N)C(C)C (stereo partly shown) [CBD-di-Val, CBD-Di-Valinate]","Penetration into the ocular tissues, in words (Example 14)",[3]; rabbit eye,not adequate
"CN1CC[C@]23c4c5ccc(O)c4O[C@H]2[C@@H](O)C=C[C@H]3[C@H]1C5.O=S(=O)(O)O [morphine, Morphine sulfate]","Effect on cisplatin-induced tactile allodynia (eVF paw withdrawal), in words","[1]; Example 23, 0.1 mg/kg IP alone, 45 minutes prior to testing",did not affect eVF responses
same,"Effect on cisplatin-induced tactile allodynia (eVF paw withdrawal), in words","[1]; Example 23, 2.5 mg/kg IP alone, 45 minutes prior to testing",fully attenuated tactile allodynia
same,"Effect on cisplatin-induced tactile allodynia (eVF paw withdrawal), in words","[1]; Example 24, 0.1 mg/kg IP alone",did not affect eVF responses
same,"Effect on cisplatin-induced tactile allodynia (eVF paw withdrawal), in words","[1]; Example 24, 2.5 mg/kg IP alone",fully attenuated tactile allodynia
same,"Conditioned place preference scores, in words",[5]; morphine treated vs control group (vehicle+saline),higher preference scores compared to the control group
CBD-Mono-Valinate [CBD-VAL-MONO],Maximum solubility achieved in Tocrisolve,[4],1.41 % w/v
same,Maximum solubility achieved in Tocrisolve (In terms of CBD),[4],(1.07) % w/v

# Source: patent publication US11337950B2, “Biologically active cannabidiol analogs” (University of Mississippi, priority 2016, dated 2022)
